Blank lines part the entries; values can stand above or below the compound they belong to. Active and inactive are the calls of the source.
How the values were obtained:
[1] = target: T1, Delta-type opioid receptor (Homo sapiens, UniProt P41143); assay: DOR agonists, SAR follow-up, image-based (AID 2370); type: functional
Mu-type opioid receptor [2] = target: T2, Mu-type opioid receptor (Homo sapiens, UniProt P35372); assay: MOR agonists by imaging, SAR follow-up, image-based (AID 2352); type: functional
[3] = target: Dual specificity protein phosphatase 3 (Homo sapiens, UniProt P51452); assay: SAR VHR1 Fluorescent Assay for In Vitro dose response studies Set 2. [Related pubchem assays (depositor defined):AID1654, AID1661, AID1878]; type: functional
[4] = target: T3, Kappa-type opioid receptor (Homo sapiens, UniProt P41145); assay: KOR antagonists by imaging, SAR follow-up, image-based (AID 2348); type: functional
[5] = target: T3, Kappa-type opioid receptor; assay: KOR agonist analogs, imaging readout, SAR follow-up, image-based (AID 2359); type: functional
[6] = target: T3, Kappa-type opioid receptor; assay: kappa opioid receptor blockers, cell-based, luminescence, beta-arrestin, SAR follow-up (AID 2285); type: functional
[7] = target: T4, Tyrosine-protein phosphatase non-receptor type 7 (Homo sapiens, UniProt P35236); assay: SAR analysis of chemical inhibitors of HePTP using a Fluorescent assay - Set 2. [Related pubchem assays (depositor defined):AID1059, AID1077, AID1661, AID2085, AID521]; type: functional
T4 sequence (P35236 whole entry): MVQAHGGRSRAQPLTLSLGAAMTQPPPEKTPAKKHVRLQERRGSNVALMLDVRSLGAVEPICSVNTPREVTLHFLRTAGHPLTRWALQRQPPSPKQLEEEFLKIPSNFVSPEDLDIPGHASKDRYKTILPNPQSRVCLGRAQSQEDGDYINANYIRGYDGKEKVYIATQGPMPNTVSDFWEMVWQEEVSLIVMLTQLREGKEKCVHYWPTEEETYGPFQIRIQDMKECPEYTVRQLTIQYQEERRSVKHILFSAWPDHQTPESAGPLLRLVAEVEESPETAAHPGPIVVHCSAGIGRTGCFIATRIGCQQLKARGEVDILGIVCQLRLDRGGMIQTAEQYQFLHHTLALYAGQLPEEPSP

Mu-type opioid receptor [8] = target: T2, Mu-type opioid receptor; assay: MOR antagonists, SAR follow-up, image-based (AID 2420); type: functional;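 note: compounds added before stimulation of receptor with agonist DAMGO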
[9] = target: T1, Delta-type opioid receptor; assay: DOR antagonists, SAR follow-up, image-based (AID 2357); type: functional
[10] = target: T3, Kappa-type opioid receptor; assay: SAR analysis of small molecule agonists of the kappa opioid receptor via a luminescent beta-arrestin assay - Set 2. [Related pubchem assays (depositor defined):AID1777, AID1785, AID1786, AID1966, AID2133, AID2136, AID2284, AID449737]; type: functional
[11] = target: T3, Kappa-type opioid receptor; assay: SAR analysis of Agonists of the Kappa Opioid Receptor (KOR) using an Image-Based Assay - Set 2. [Related pubchem assays (depositor defined):AID1777, AID1786, AID1966, AID2133, AID2136, AID2284, AID2285, AID2359]; type: functional
Mu-type opioid receptor [12] = target: T2, Mu-type opioid receptor; assay: SAR Analysis of Antagonists of the MOR Receptor using an Image-Based Assay - Set 2. [Related pubchem assays (depositor defined):AID1777, AID1785, AID1786, AID1966, AID2133, AID2136, AID2284, AID2285, AID2420]; type: functional
[13] = target: T1, Delta-type opioid receptor; assay: SAR Analysis of Antagonists of the DOR Receptor using an Image-Based Assay - Set 2. [Related pubchem assays (depositor defined):AID1777, AID1785, AID1786, AID1966, AID2133, AID2136, AID2284, AID2285, AID2357]; type: functional
Mu-type opioid receptor [14] = target: T2, Mu-type opioid receptor; assay: SAR Analysis of Agonists of the MOR Receptor using an Image-Based Assay - Set 2. [Related pubchem assays (depositor defined):AID1777, AID1785, AID1786, AID1966, AID2133, AID2136, AID2284, AID2285, AID2352]; type: functional
[15] = target: T3, Kappa-type opioid receptor; assay: KOR agonist analogs, arrestin-GFP redistribution, SAR follow-up, imaging, image-based, set 3 (AID 488833); type: functional
[16] = target: T1, Delta-type opioid receptor; assay: SAR Analysis of Agonists of the DOR Receptor using an Image-Based Assay - Set 2. [Related pubchem assays (depositor defined):AID1777, AID1785, AID1786, AID1966, AID2133, AID2136, AID2284, AID2285, AID2370]; type: functional
[17] = target: T3, Kappa-type opioid receptor; assay: SAR analysis of small molecule agonists of the kappa opioid receptor via a luminescent beta-arrestin assay - Set 3. [Related pubchem assays (depositor defined):AID1777, AID1785, AID1786, AID1966, AID2133, AID2136, AID2284, AID2500]; type: functional
[18] = target: T1, Delta-type opioid receptor; assay: SAR Analysis of Agonists of the DOR Receptor using an Image-Based Assay - Set 3. [Related pubchem assays (depositor defined):AID1777, AID1786]; type: functional
[19] = target: T3, Kappa-type opioid receptor; assay: SAR analysis of Antagonists of the Kappa Opioid Receptor (KOR) using an Image-Based Assay - Set 2. [Related pubchem assays (depositor defined):AID1777, AID1785, AID1786, AID1966, AID2133, AID2136, AID2284, AID2285, AID2348]; type: functional
Mu-type opioid receptor [20] = target: T2, Mu-type opioid receptor; assay: SAR Analysis of Agonists of the MOR Receptor using an Image-Based Assay - Set 3. [Related pubchem assays (depositor defined):AID1777, AID1785, AID1786, AID1966, AID2133, AID2136, AID2284, AID2285, AID2352]; type: functional
[21] = Counterscreen for AddAB inhibitors: absorbance-based bacterial cell-based high throughput dose response assay for inhibitors of bacterial viability. [Related pubchem assays (depositor defined):AID435030, AID449728, AID449731, AID488942, AID488955, AID488956]; type: functional
Exodeoxyribonuclease V = Exodeoxyribonuclease V (Escherichia coli (strain K12), UniProt P04993+P07648+P08394); assay: E. coli RecBCD inhibitors, dose response, counter-screen for AddAB inhibitor project, absorbance, V66 E. coli, mutant T4 phage (AID 492957); type: functional, cell-based, Escherichia coli str. K-12 substr. MG1655
Exodeoxyribonuclease V, sequence (P04993 whole entry): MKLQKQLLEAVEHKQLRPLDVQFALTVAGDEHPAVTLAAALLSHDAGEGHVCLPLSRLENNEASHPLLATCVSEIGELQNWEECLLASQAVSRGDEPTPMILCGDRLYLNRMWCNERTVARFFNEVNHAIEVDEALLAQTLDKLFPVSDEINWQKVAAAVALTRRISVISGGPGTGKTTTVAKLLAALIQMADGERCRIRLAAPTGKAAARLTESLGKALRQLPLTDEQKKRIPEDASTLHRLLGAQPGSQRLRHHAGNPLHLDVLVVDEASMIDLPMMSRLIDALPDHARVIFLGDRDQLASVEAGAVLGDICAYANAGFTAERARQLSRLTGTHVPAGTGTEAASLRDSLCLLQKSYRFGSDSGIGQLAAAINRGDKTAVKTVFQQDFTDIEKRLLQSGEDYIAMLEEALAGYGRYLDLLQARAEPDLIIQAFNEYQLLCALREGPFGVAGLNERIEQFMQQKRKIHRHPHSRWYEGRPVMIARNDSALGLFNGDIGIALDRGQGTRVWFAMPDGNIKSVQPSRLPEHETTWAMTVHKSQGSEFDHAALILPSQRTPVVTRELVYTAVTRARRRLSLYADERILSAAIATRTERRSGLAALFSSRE
Exodeoxyribonuclease V, sequence (P07648 whole entry): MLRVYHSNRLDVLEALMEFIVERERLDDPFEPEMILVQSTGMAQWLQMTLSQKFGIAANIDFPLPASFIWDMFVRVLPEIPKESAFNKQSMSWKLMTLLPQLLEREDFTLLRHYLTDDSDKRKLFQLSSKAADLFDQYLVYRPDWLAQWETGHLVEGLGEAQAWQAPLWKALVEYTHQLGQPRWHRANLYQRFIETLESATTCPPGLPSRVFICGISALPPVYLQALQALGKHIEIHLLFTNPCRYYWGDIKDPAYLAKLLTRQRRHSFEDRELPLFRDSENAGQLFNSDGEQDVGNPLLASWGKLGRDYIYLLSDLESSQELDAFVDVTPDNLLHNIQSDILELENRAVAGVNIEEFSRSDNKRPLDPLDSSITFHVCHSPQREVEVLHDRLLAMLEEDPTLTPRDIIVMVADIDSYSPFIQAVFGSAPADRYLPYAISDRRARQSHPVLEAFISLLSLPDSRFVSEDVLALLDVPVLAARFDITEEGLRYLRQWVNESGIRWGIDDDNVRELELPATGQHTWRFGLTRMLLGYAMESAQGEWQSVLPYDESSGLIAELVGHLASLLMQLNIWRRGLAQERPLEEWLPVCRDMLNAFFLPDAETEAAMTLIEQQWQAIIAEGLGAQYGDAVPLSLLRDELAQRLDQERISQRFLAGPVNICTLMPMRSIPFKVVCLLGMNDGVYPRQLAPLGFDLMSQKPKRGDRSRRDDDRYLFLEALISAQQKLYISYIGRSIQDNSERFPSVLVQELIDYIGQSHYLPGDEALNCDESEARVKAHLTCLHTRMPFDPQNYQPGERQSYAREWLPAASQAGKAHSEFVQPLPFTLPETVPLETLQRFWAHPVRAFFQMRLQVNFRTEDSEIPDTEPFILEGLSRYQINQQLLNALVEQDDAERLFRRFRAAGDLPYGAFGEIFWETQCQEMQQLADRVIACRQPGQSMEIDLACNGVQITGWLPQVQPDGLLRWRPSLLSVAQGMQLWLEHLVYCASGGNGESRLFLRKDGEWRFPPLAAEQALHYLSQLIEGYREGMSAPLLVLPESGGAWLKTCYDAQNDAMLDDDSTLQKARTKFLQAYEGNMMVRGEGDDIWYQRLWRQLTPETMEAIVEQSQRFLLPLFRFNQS
Exodeoxyribonuclease V, sequence (P08394 whole entry): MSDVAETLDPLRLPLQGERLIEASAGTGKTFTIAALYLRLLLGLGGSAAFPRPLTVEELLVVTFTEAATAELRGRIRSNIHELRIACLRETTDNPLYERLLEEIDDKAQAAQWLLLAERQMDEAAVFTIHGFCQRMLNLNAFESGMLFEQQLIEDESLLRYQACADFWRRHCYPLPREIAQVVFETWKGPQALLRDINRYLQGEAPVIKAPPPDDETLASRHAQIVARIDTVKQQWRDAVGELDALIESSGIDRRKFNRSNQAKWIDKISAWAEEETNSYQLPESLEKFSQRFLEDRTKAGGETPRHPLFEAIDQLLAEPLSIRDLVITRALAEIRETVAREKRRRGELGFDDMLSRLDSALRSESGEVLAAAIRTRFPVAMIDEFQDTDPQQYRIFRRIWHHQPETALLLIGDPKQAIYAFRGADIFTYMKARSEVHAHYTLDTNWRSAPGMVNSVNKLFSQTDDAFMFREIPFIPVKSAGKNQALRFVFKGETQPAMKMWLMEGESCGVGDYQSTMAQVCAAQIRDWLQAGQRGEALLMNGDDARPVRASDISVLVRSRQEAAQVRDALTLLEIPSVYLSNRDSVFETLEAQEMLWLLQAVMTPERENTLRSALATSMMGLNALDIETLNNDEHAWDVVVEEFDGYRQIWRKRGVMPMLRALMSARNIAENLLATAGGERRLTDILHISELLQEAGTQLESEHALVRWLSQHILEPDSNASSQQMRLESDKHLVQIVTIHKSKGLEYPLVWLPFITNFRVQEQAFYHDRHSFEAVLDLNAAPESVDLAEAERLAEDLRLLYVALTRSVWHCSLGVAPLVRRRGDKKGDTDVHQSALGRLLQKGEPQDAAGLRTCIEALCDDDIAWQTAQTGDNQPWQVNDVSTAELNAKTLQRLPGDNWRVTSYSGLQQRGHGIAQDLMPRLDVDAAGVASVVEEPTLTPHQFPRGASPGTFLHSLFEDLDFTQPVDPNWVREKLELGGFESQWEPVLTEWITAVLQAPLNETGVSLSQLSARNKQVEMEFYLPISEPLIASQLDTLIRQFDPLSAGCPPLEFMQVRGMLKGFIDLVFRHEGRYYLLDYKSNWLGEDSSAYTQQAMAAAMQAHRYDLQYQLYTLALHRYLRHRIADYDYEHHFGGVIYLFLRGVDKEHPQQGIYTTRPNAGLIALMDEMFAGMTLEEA

T3 sequence (P41145 whole entry): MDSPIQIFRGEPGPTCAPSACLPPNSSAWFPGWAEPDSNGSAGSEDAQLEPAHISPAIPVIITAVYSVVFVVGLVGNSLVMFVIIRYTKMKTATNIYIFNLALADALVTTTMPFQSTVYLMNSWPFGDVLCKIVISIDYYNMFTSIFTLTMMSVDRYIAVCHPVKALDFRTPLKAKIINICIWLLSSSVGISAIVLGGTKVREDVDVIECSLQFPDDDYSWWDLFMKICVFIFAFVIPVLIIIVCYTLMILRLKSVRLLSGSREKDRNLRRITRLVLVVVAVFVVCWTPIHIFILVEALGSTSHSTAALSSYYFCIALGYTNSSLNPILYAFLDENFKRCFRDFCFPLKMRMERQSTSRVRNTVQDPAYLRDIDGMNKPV
T2 sequence (P35372 whole entry): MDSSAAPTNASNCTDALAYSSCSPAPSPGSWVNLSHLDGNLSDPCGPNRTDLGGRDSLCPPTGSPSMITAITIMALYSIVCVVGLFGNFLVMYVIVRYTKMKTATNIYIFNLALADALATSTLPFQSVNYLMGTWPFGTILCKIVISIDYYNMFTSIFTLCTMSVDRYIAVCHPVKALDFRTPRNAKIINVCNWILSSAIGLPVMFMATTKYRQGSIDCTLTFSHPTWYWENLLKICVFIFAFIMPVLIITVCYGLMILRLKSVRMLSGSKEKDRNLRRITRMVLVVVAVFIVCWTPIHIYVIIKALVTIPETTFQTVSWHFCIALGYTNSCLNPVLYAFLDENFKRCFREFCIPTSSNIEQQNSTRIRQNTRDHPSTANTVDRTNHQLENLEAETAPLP
T1 sequence (P41143 whole entry): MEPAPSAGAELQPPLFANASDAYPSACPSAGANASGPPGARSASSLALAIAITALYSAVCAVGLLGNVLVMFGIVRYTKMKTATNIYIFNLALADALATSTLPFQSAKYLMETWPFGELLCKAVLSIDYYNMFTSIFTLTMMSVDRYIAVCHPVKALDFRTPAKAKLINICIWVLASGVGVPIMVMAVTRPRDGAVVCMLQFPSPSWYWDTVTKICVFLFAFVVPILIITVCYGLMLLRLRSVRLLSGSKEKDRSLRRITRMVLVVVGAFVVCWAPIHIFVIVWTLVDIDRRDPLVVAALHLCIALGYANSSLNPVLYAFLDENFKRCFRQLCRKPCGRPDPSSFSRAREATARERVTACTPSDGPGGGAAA
Dual specificity protein phosphatase 3, sequence (P51452 whole entry): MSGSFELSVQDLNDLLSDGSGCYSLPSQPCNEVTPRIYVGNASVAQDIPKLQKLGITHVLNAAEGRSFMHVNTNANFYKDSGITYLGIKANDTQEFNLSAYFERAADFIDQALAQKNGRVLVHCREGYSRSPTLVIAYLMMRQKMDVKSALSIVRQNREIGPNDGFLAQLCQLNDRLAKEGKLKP

Structure (SMILES): O=C(NC(NC(=S)Nc1ccc(Cl)cc1Cl)C(Cl)(Cl)Cl)OCc1ccccc1 (configuration not stated)
- EC50 [1]: > 32 µM (inactive)
- EC50 (Mu-type opioid receptor [2]): > 32 µM (inactive)
- IC50 [3]: > 100 µM (inactive)
- IC50 [4]: 0.879 µM (active)
- EC50 [5]: > 32 µM (inactive)
- IC50 [6]: 2.09 µM (active)
- IC50 [7]: > 100 µM (inactive)
- IC50 (Mu-type opioid receptor [8]): > 32 µM (inactive)
- IC50 [9]: > 32 µM (inactive)

- EC50 [10]: 2.27 µM (active)
- EC50 [11]: 8.11 µM (active)
- IC50 (Mu-type opioid receptor [12]): > 32 µM (inactive)
- IC50 [13]: > 32 µM (inactive)
- EC50 (Mu-type opioid receptor [14]): > 32 µM (inactive)
- EC50 [15]: 0.694 µM (active)
- EC50 [16]: > 32 µM (inactive)
- EC50 [17]: 1.38 µM (active)
- EC50 [18]: > 64 µM (inactive)
- IC50 [19]: > 32 µM (inactive)
- EC50 (Mu-type opioid receptor [20]): > 32 µM (inactive)
Structure (SMILES): Clc1ccc(CSc2nnc(-c3ccccn3)n2Cc2cccs2)c(Cl)c1

Structure (SMILES): O=C(N/N=C\c1cccc(Cl)c1)c1ccc(Cn2cc(Br)c([N+](=O)[O-])n2)o1
- IC50 [21]: > 119 µM (inactive)
- IC50 (Exodeoxyribonuclease V): > 119 µM (inactive)

— ChEMBL document CHEMBL1201862, “PubChem BioAssay data set” (2004)
